According to paper PMC11992208, “Structural basis for the prolonged photocycle of sensory rhodopsin II revealed by serial synchrotron crystallography” (Nature Communications, 2025):

Molecular target: T1, sensory rhodopsin II (NpSRII) (Natronomonas pharaonis, UniProt P42196)
T1 construct: gene sop2; His-tagged, expressed in E. coli BL21star from pET27a, Ni-NTA and size exclusion; crystallised in LCP
T1 sequence (P42196 1-239): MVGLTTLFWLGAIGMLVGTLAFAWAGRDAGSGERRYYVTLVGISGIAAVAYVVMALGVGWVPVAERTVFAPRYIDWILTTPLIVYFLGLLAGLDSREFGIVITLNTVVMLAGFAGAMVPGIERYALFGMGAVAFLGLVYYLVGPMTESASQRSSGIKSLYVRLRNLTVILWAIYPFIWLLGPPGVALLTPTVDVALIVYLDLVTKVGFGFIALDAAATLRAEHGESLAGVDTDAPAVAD
Assay: serial synchrotron X-ray crystallography
Format: binding
Conditions: covalent, room temperature

Row | Structure (SMILES) | serial synchrotron X-ray crystallography (Lys205, photoisomerized in situ from all-trans retinal, M-state at partial occupancy, continuous 488 nm illumination) | serial synchrotron X-ray crystallography (protonated Schiff base to Lys205, dark resting state, LCP microcrystals)
1 | CC1=C(/C=C/C(C)=C/C=C/C(C)=C\C=O)C(C)(C)CCC1 [13-cis retinal] | the population of the M-state was given a 13-cis retinal | –
2 | CC1=C(/C=C/C(C)=C/C=C/C(C)=C/C=O)C(C)(C)CCC1 [all-trans retinal] | – | the resting and O-state populations were refined with an all-trans retinal
